Data on one compound can be found in patent US20250381307A1, “RETRO-AAV AND USE IN TREATING NEURODEGENERATIVE DISEASES” (priority 2023, published 2025).

The target in the assay is T1, rM3Ds (Rattus norvegicus, UniProt P08483, A177S/A238G/A489L/DEL261-437/DEL441-478/E258S/I253V/I483M/INS256[…]/K178L/K182A/K255R/K484R/K486H/L173F/L482A/M480V/R171S/R176Q/R179M/S481M/T174R/T181R/T257A/Y148C).
T1 sequence (P08483 with tags, fused parts or gaps Y148C/R171S/L173F/T174R/R176Q/A177S/K178L/R179M/T181R/K182A/A238G/I253V/K255R/INS256[…]/T257A/E258S/DEL261-437/DEL441-478/M480V/S481M/L482A/I483M/K484R/K486H/A489L): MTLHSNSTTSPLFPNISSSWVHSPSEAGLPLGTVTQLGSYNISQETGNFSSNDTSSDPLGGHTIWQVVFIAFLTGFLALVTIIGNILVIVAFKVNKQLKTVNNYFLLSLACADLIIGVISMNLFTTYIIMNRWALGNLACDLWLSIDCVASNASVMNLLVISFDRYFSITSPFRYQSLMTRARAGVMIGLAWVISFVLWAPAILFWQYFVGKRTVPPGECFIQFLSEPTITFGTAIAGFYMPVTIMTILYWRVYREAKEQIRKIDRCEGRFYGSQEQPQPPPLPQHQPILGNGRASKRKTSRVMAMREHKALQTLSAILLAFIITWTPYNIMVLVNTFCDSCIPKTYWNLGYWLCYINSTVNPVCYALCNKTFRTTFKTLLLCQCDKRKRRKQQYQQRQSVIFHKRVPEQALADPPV
As to the kind of experiment: In vivo electrophysiological recording in caudate/putamen, rM3Ds macaques, intramuscular CNO. More on the design: rM3Ds; 2A-EYFP (C); host or cells: AAV8R12-transduced striatal D1-MSNs of mice and cynomolgus macaques (in vivo and acute slices). On the procedure:
Electrophysiological recording was performed through a recording chamber while the monkey was anesthetized. Neural responses were recorded by a 16-channel linear probe (Plexon Inc, Uprobe) driven by a mechanical microdrive (Alpha Omega, FlexMT). Signals were passed through a head stage (Plexon Inc, HST/16V-G20 LN) and then split and filtered between 300 Hz and 5 kHz to identify spiking activity with an amplifier system (Plexon Inc, OmniPlex). Detected spikes were then sorted by commercially available software (Plexon Inc, Offline Sorter) for further analysis. To quantify the effect of CNO/DCZ injection, neural activity was recorded for 60 minutes following CNO/DCZ injection. The response time-course for each channel was obtained by counting the spikes within every 10-minute window and then normalizing to the maximal.
To determine the effect of CNO/DCZ injection on the direction of signal change, we performed Pearson correlation between neural responses and time using the ‘corr’ function in Matlab, which generates the correlation coefficient ‘r’ and significant level ‘p’. A neuron was considered to have “Increased” activity when r>0 and p<0.05; and considered to have “Decreased” activity when r<0 and p<0.05. Otherwise, neurons were considered to be “Unchanged” in their neural activities. The responses of all increased neurons were then averaged after being normalized by the maximal response (Crowe et al., 2014; Dai and Wang, 2018; Hirokawa et al., 2019) following CNO/DCZ injection, and then plotted as a function of time to generate the normalized population response.
To enable in-vivo verification of the strategy via an opto-tagging approach, AAV virus encoding opsin ChR2 (AAV9-EF1α-DIO-ChR2-EYFP) was injected into the striatum with simultaneous nigral infusion of a retrograde AAV encoding Cre and rM3Ds (AAV8R12-G88P7-HA-rM3Ds-2A-Cre). A total volume of 27 μl (3 μl×9 sites) and 30 μl (3 μl×10 sites) were injected in the SNr and the striatum, respectively. A recording chamber was implanted above the striatum to allow optical stimulation and electrophysiological recording.
Optogenetic verification was conducted six weeks after virus injections. A 16-channel linear probe with an embedded optic fiber (Plexon Inc., Uprobe) was used to deliver light stimulation and record neural responses. A mechanical Microdrive (FlexMT, Alpha Omega, Nazareth, Israel) was used to mount and drive the probe. A blue laser (473 nm, Changchun New Industries Tech, MBL-III-473) was used to generate light stimulation, which was controlled by a DAQ board (National Instruments, PCIe-6321) through the MonkeyLogic toolbox (NIMH version).
Light pulses of 40 Hz that last for 500 ms were used to probe neurons' responses to optical stimulation. […] Responses from these optically identified cells were grouped to generate the normalized population response as a function of time.

With `C[N+]1([O-])CCN(C2=Nc3cc(Cl)ccc3Nc3ccccc32)CC1` [CNO, clozapine N-oxide], the “caudate/putamen cells activated (FIG. 12N)” value (38 total cells, saline 20%) worked out at 50%. Also, the “caudate/putamen cells unchanged (FIG. 12N)” value (38 total cells, saline 26.7%) stood at 36.8%. Also, the “caudate/putamen cells inactivated (FIG. 12N)” value (38 total cells, saline 53.3%) worked out at 13.2%. In addition, the “neuronal activity of opto-tagged retrogradely labeled D1-MSNs” value (AAV8R12-G88P7-HA-rM3Ds-2A-Cre plus AAV9-EF1α-DIO-ChR2-EYFP, anesthetized macaques) is “effectively induced an increase of neuronal activity”. Further, where the note is “monkey CM048, 38 cells”, the “caudate cells activated (FIG. 12F)” value stood at 65.8%, the “caudate cells inactivated (FIG. 12F)” value was found to be 7.9% and the “caudate cells unchanged (FIG. 12F)” value came out at 26.3%.
